Common to all, as to assay: growth of human tumour cells (NCI), 48 h
In experiment [1] the test system is SN12C renal.
Experiment [2] concerns SR leukemia.
Experiment [3] deals with HCC-2998 colon.
Experiment [4] has as its system SNB-75 CNS.
In experiment [5] the test system is MDA-MB-435.
The subject of experiment [6] is SNB-19 CNS.
Experiment [7] deals with DU-145 prostate.
Experiment [8] relates to NCI-H23 lung.
Experiment [9] deals with NCI-H522 lung.
Experiment [10] concerns KM12 colon.
For experiment [11], the system named is HCT-15 colon.
The subject of experiment [12] is MDA-MB-231 breast.

“And” between values parts separate entries of the source, which are not always exact repeats. Equal values may be shown once.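 96-well plates; 48 h exposure; 5 concentrations. Endpoints by linear interpolation between flanking doses. Not reached: highest tested concentration assigned. The concentration for 50% growth inhibition is given as GI50. TGI: total growth inhibition.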 Where a SMILES comes first, the peptide text is derived from it. The star is where a group is joined. Boc = CC(C)(C)OC(=O)*; OSu = O=C1CCC(=O)N1O*

In the case of `Cc1cn(C2CC(N)C(CN)O2)c(=O)[nH]c1=O` (stereo not drawn), the TGI in experiment [1], in experiment [2], in experiment [3], in experiment [4], in [5] and in [6] was more than 100 µM throughout. The TGI in [7], in experiment [8], in experiment [9], in experiment [10] and in experiment [11] was more than 100 µM throughout.
On to `COc1ccc2nc(-c3ccc(OCc4ccccc4)cc3)ccc2c1`, for which the TGI in experiment [1], in experiment [2], in [3], in experiment [4], in experiment [6] and in experiment [8] was more than 100 µM each time. In addition, the TGI in experiment [9] and in experiment [10] was more than 100 µM each time.
With `COc1ccc(-c2c(C#N)c(N)n(C3OC(CO)C(O)C(O)C3O)c(=S)c2C#N)cc1` (stereo not drawn), the TGI in [1], in experiment [2], in experiment [3], in [4], in [6] and in experiment [7] was more than 100 µM each time. Besides, the TGI in experiment [8], in [9], in experiment [12], in experiment [10] and in experiment [11] was more than 100 µM throughout. Moreover, the GI50 in experiment [9] is 34.4 µM and 13.2 µM.
As for `COc1ccc(C2C(Cl)C(=O)N2NC(=O)c2ccc(NC(C)=O)cc2)cc1` (stereo not drawn), the TGI in experiment [1], in experiment [4], in [6], in experiment [8], in experiment [9] and in experiment [11] was more than 100 µM in each case.
For `O=C1CC(O)c2c1csc2Br` (stereo not drawn), the TGI in experiment [1] is 87.9 µM; in experiment [3] it was 44 µM; in experiment [4], more than 100 µM; in experiment [5], 41.1 µM; in experiment [6], more than 100 µM; in experiment [7], 88 µM. The TGI amounted to 59.1 µM in experiment [8]; 30.4 µM in experiment [9]; 55 µM in experiment [12]; 43.3 µM in [10]; 39 µM in experiment [11].
Regarding `CCOc1ccc(N/C(=C(/C(Cl)=C(/Cl)NCCN)[N+](=O)[O-])n2nnc3ccccc32)cc1`, the TGI in experiment [1], in experiment [3], in experiment [4], in [5], in experiment [6] and in experiment [8] was more than 100 µM each time. The values for the TGI in experiment [12], in experiment [10] and in experiment [11] were more than 100 µM, more than 100 µM and 38 µM, respectively.
Regarding `COC1(C)CC2N(C(=O)c3ccccc3)N=C(c3ccccc3)CC2(C)O1` (stereo not drawn), the TGI in experiment [1], in experiment [3], in experiment [4], in experiment [6], in experiment [9] and in experiment [10] was more than 100 µM each time. The molecule further yielded a TGI in [11] of more than 100 µM.
In the case of `CC(C)(C)OC(=O)NC(Cc1ccc(O)cc1)C(=O)NC(CCCCN)C(=O)NC(Cc1ccc(O)cc1)C(=O)NC(CCCCN)C(=O)ON1C(=O)CCC1=O` (stereo not drawn) (Boc-YKYK-OSu; configuration not given here), the TGI in [1], in experiment [2], in [3], in [4], in experiment [6] and in experiment [8] was more than 100 µM each time. In addition, the TGI in experiment [12], in experiment [10] and in experiment [11] was more than 100 µM each time.
For `CCN(CC)CCOC(c1cc(OC)ccc1OC)c1ccc2n1-c1ccccc1OC2` (stereo not drawn), the TGI in experiment [1] was 7.69 µM; in experiment [3], 20.9 µM; in experiment [4], 17.3 µM; in experiment [5], 22.2 µM; in experiment [6], 31.2 µM; in experiment [7] it was 60.7 µM. Moreover, the TGI in [8] was determined as 25.6 µM; in experiment [9], 30 µM; in [12] it was 5.46 µM; in experiment [10], 34.2 µM; in experiment [11] it was 23.6 µM.
In the case of `O=C1O[C@@H](c2ccccc2)C[C@@H]1CN1CCOCC1`, the TGI in experiment [1] was more than 100 µM; in experiment [3] it was more than 100 µM; in experiment [4], more than 100 µM; in [8], 64.1 µM; in [9], more than 100 µM; in experiment [10], more than 100 µM. Besides, the TGI in experiment [11] was more than 100 µM.
Turning to `C[N+](C)(C)CC(=O)N/N=c1\cc(C(=O)Nc2ccc(N=O)cc2C#N)oc2cc(O)ccc12`, the TGI in experiment [1], in experiment [2], in [3], in experiment [4], in experiment [6] and in experiment [8] was more than 100 µM each time. The TGI in [9], in experiment [10] and in [11] was more than 100 µM throughout.
On to `Cc1c(Cl)cccc1NC(=O)C(=O)C1C(=O)CC(C)(C)CC1=O`, for which the TGI in experiment [1], in experiment [2], in experiment [3], in experiment [4], in experiment [6] and in [8] was more than 100 µM throughout. Also, the TGI in experiment [9], in [10] and in [11] was more than 100 µM each time.
Turning to `CC1C(c2cc(C(C)(C)C)c(O)c(C(C)(C)C)c2)c2cc3c(cc2OC1N1CCOCC1)OCO3` (stereo not drawn), the TGI in experiment [1] is more than 100 µM; in experiment [2] it was more than 100 µM; in experiment [3], 33.4 µM; in experiment [5], 68.2 µM; in experiment [6] it was 40.5 µM; in experiment [7], more than 100 µM. For the same molecule, the TGI was 94.9 µM in [8], more than 100 µM in experiment [9] and more than 100 µM in experiment [10].
As to `Nc1nc2ncc(SCc3ccc(C(=O)NC(CCC(=O)O)C(=O)O)cc3)cc2c(=O)[nH]1` (stereo not drawn), the TGI in experiment [1], in experiment [2], in experiment [3], in experiment [5], in experiment [6] and in experiment [7] was more than 100 µM each time. The TGI in [8], in [9], in experiment [10] and in experiment [11] was more than 100 µM throughout.
